The results in this text go back to paper PMC3789174 (Cell Death & Disease, 2013).

This test deals with PBMCs from CLL patients. The experiment in a line: Peptide-induced cell death, PI staining and FACS. It counts as cell-based, human. Conditions: relatively high concentrations; data not shown.

Molecules are shown by their SMILES.

As to `Nc1nc(F)nc2c1ncn2[C@@H]1O[C@H](CO)[C@@H](O)[C@@H]1O` [fludarabine], the “cell killing effect on PBMCs isolated from CLL patients” value was “only a weak cell killing effect”.
